Laboratory results published in patent US9808470B2, “Estrogenic components for use in the treatment of neurological disorders” (UNIVERSITE DE LIEGE, priority 2012, dated 2017).

How the values were obtained:
[1] = tested on: intact cells in hippocampus and cortex; test: Ex.8 therapeutic HIE rat model: intact cell counting; assay type: in vivo
Procedure: To study the therapeutic effect of estetrol, newborn rat pups were assigned to one of the following 14 groups at postnatal day 7 (FIG. 23(B)): Sham group (n=12), Vehicle (n=15), 5 mg/kg/day E4 (n=11), 10 mg/kg/day E4 (n=11), 5 mg/kg/day E4+1.6 mg/kg/day PROG (n=11), 10 mg/kg/day E4+1.6 mg/kg/day PROG (n=11), 5 mg/kg/day E4+16 mg/kg/day PROG (n=11), 10 mg/kg/day E4+16 mg/kg/day PROG (n=13), 5 mg/kg/day E4+136 ng//kg/day E2 (n=11), 10 mg/kg/day E4+136 ng/kg/day E2 (n=11), 5 mg/kg/day E4+1.6 mg/kg/day PROG+136 ng/kg/day E2 (n=12), 10 mg/kg/day E4+1.6 mg/kg/day PROG+136 ng/kg/day E2 (n=11), 5 mg/kg/day E4+16 mg/kg/day PROG+136 ng/kg/day E2 (n=11), 10 mg/kg/day E4+16 mg/kg/day PROG+136 ng/kg/day (n=12) groups. […] After surgery, the pups were returned to their dams and allowed to recover for 1 hour. The pups were then placed in a humidified hypoxic in vivo cabinet (CoyLab). Hypoxia was produced by the inhalation of 11%-8% of oxygen balanced by nitrogen at decreased concentration of oxygen for 20 minutes, followed by inhalation of 8% oxygen and 92% nitrogen at constant concentration for 35 minutes. All the manipulations were performed at 37° C. Upon retrieval from the hypoxia chamber the rat pups were injected ip once either by vehicle (vehicle group) or by in accordance to the group assignment. The animals from the sham group went through similar procedures but proceeded neither left common carotid artery ligation and cut followed by hypoxia nor injections. Rat pups recovered with their dams until being sacrificed at postnatal day 14 (FIG. 24(B)). […]
Intact cell counting was performed on hematoxylin-eosin-stained sections of the rat pups brains at magnification 400× in 3 fields of the respective brain area. […] The sections were analyzed with the aid of a microscope (Olympus BX51, Olympus, Tokyo, Japan), an image scanner (DotSlide Digital Virtual Microscopy, Olympus, Germany) and ImageJ software (NIH, US). […]

[2] = tested on: glial fibrillary acidic protein (GFAP); test: Ex.4 therapeutic HIE rat model: blood serum GFAP ELISA; assay type: in vivo; conditions: estetrol treated animals (1, 5, 10, 50 mg/kg single ip dose after HI); PND14; vs vehicle
Procedure: Blood was withdrawn, centrifuged and the serum samples were stored at −80° C.
ELISAs for detecting the brain damage markers S100B protein (Catalog# CSB-E08066r, Cusabio Biotech Co., LTD, China), and glial fibrillary acidic protein (GFAP) (Catalog# E90068Ra, Uscn Life sciences Inc., China) in blood serum samples were performed according to the manufacturers' recommendations.
To study the therapeutic effect of estetrol, newborn rat pups were assigned to one of the following 6 groups at postnatal day 7: sham group (n=29), vehicle group (n=20), 1 mg/kg E4 group (n=16), 5 mg/kg E4 group (n=19), 10 mg/kg day E4 (n=17) and 50 mg/kg day E4 group (n=15). At postnatal day 7 animals were anesthetized with isoflurane (induction, 3.0%; maintenance, 1.5%), and the rat pups from vehicle and E4 groups passed through surgery encompassing left common carotid artery double ligation and cut. After surgery, the pups were returned to their dams and allowed to recover for 1 hour. The pups were then placed in a humidified hypoxic in vivo cabinet (CoyLab). Hypoxia was produced by the inhalation of 11%-8% of oxygen balanced by nitrogen at decreased concentration of oxygen for 20 minutes, followed by inhalation of 8% oxygen and 92% nitrogen at constant concentration for 35 minutes. All the manipulations were performed at 37° C. […]

MCF-7 cells = conditions: compared to E2; cited from earlier work

## C[C@]12CC[C@@H]3c4ccc(O)cc4CC[C@H]3[C@@H]1[C@@H](O)[C@@H](O)[C@@H]2O [E4, 1,3,5(10)-estratrien-3,15α,16α,17β-tetrol]
[1]; 10 mg/kg/day E4, CA1
  number of intact cells: 57.30±5.19
[1]; 10 mg/kg/day E4, DG
  intact cell counting per visual field: 150.20±9.43
[1]; 10 mg/kg/day E4, cortex
  number of intact cells: 46.60±1.83
[2]
  expression of GFAP protein in blood serum: significantly lower expression
MCF-7 cells
  estrogenic activity in growth promotion of MCF-7 cells: weak estrogen
